Key:
Assay type in all cases: cell-based, human
[1] = tested on: A549 cells; experiment: Isotopomer Spectral Analysis (ISA) of lipogenesis in A549 cells
Experimental: (§1) Cell Culture, Isotopic Labeling, and Hypoxia. All cell lines were cultured in Dulbecco's Modified Eagle Medium (DMEM; Mediatech) containing 10% fetal bovine serum (FBS; Invitrogen) and 100 U/ml penicillin/streptomycin (P/S; Mediatech) unless otherwise mentioned. Cell lines were obtained from ATCC unless otherwise noted. The VC3 glioma cell line was provided by Tim Lautenschlaeger (Ohio State University), MDA-MB-231 and HCT116 cell lines were provided by Ferdinando Chiaradonna (University of Milano-Bicocca), MRC5 cells were provided by Stephen Lippard (MIT), SN12C, ACHN, and 786-O cells were provided by Kevin Courtney and Lew Cantley (Harvard Medical School), and MCF10A cells were provided by Joan Brugge (Harvard Medical School), and Huh7 cells were provided by Mike Hemann (MIT). MCF10A cells were cultured in custom DMEM/F12 (Hyclone) containing 5% horse serum, 20 ng/ml EGF, 10 μg/ml insulin, 100 ng/ml cholera toxin, 0.5 mg/ml hydrocortisone, 100 U/ml penicillin/streptomycin, and labeled/unlabeled glucose and glutamine at 18 mM and 2.5 mM, respectively. […] The internal gas content was monitored using Fyrite gas analyzers (Bacharach) for CO2 and O2. […]
(§2) Metabolite Extraction and Gas Chromatography/Mass Spectrometry (GC/MS) Analysis. […] In some ISA experiments, cells were trypsinized, counted, and pelleted prior to lipid extraction as described above. […]

[2] = tested on: 143B cells; experiment: Isotopomer Spectral Analysis (ISA) of lipogenesis in 143B cells
Experimental: as §1, §2

[3] = tested on: UMRC2 cells; experiment: ISA of lipogenesis and glucose oxidation in UMRC2 cells expressing ARNT-targeting shRNAs; settings: UMRC2 cells (VHL-deficient)
Experimental: as §1, §2

Sequence: CCGGGAGAAGTCAGATGGTTTATTTCTCGAGAAATAAACCATCTGACTTCTCTTT TT (CCGGGAGAAGTCAGATGGTTTATTTCTCGAGAAATAAACCATCTGACTTCTCTTTTT; expressed or natural sequence) [ARNT shRNA, pLKO.1 vector targeting ARNT with shRNA, obtained from Open Biosystems]
- utilization of [5-13C]glutamine for lipogenesis [1]: reduced
- utilization of [5-13C]glutamine for lipogenesis [2]: reduced
- glucose oxidation and reductive glutamine metabolism [3]: modulates glucose oxidation and reductive glutamine metabolism

Source: patent US10064885B2, “Metabolic gene, enzyme, and flux targets for cancer therapy” (Massachusetts Institute of Technology, priority 2010, dated 2018)
